Drawing on ChEMBL document CHEMBL1147248, “A new acylated oleanane triterpenoid from Couepia polyandra that inhibits the lyase activity of DNA polymerase beta” (J Nat Prod, 2003), this text covers IC50 for four compounds.

Structures are written as SMILES.

The assay concerns the target DNA polymerase beta (Homo sapiens, UniProt P06746). The assay can be described thus: Inhibition of DNA polymerase beta lyase activity by deoxyribose phosphate excision assay.
The term IC50 denotes the concentration that inhibits the measured activity by half. The compound `CC(=O)OC[C@@]1(C)[C@@H]2CC[C@]3(C)[C@H](CC=C4[C@@H]5CC(C)(C)CC[C@]5(C(=O)O)[C@@H](OC(C)=O)C[C@]43C)[C@@]2(C)CC[C@@H]1OC(C)=O` returned an IC50 of 13 µM.

Consider `CC[C@H](CC[C@@H](C)[C@H]1CC[C@H]2[C@@H]3CC=C4C[C@@H](O)CC[C@]4(C)[C@H]3CC[C@]12C)C(C)C` [BETA-SITOSTEROL], for which the IC50 was 26.3 µM.

As for `CC1(C)CC[C@]2(C(=O)O)CC[C@]3(C)C(=CC[C@@H]4[C@@]5(C)CC[C@H](O)C(C)(C)[C@@H]5CC[C@]43C)[C@@H]2C1` [OLEANOLIC_ACID], the midpoint of inhibition, the IC50, lay at 8.8 µM.

For the compound `CC[C@H](/C=C/[C@@H](C)[C@H]1CC[C@H]2[C@@H]3CC=C4C[C@@H](O)CC[C@]4(C)[C@H]3CC[C@]12C)C(C)C` [STIGMASTEROL], the IC50 was determined as 43.4 µM.
